Laboratory results reported in patent US11351137B2, “Composition and method for dual targeting in treatment of neuroendocrine tumors” (NANOPHARMACEUTICALS LLC, priority 2018, dated 2022).
“Also recorded” adds a separate entry of the source.

Tests used:
[1] = tested on: neuroblastoma SKNF2 cells; assay: Composition 300 dose response on subcutaneously implanted SKNF2 neuroblastoma tumor in female nude mice; assay type: in vivo; conditions: for tumor shrinkage (tumor weight) / tumor cell viability / tumor cell necrosis rate: 15 days; for tumor cell viability: control 70-75%
Experimental: The efficacy of Composition 300 (BG-P-TAT) was tested using neuroblastoma SKNF2 cells implanted into nude female mice.
Fifteen (15) female nude mice were implanted with twice with 10^6 cells/implant. The SKNF2 cell line was used with subcutaneous xenografts.
Eight (8) days following implantation, the mice were divided into four groups receiving the following treatment for 15 days:
Following fifteen (15) days of treatment, tumors were collected in order to evaluate histopathology, and the following results were collected: […]

SKNF2 cell lines [2] = assay: Comparative examples: BG, BG derivatives, TAT derivative and co-administration versus Composition 300 in mice implanted with SKNF2 cell lines; assay type: in vivo; conditions: for Percentage of Tumor Growth Suppression / Reduction of tumor viability: Dosage 3 mg/kg
Experimental: FIGS. 12a and 12b shown the effect of the control and treatment with BG, BG derivatives, thyrointegrin antagonists such as TAT derivatives, and combinations (co-administration) thereof, versus Composition 300 (BG-P-TAT) on tumor cell necrosis of mice implanted with SKNF2 cell lines.
Further, even a combination treatment of two triazole tetrac derivatives in combination delivered subcutaneously daily for three (3) weeks at 3 mg/kg only achieves a reduction of 40-50% for tumor growth and tumor viability. Similar results are obtained with treatments using benzyl guanidine and benzyl guanidine derivatives.
For example, the graph of FIG. 12b includes the effect of a triazole tetrac derivative (referred to as TAT) on tumor weight when compared with a control group (phosphate-buffered saline “PBS”). The specific derivative tested was beta cyclodextrin triazole tetrac.
Again, beta cyclodextrin triazole tetrac was the tetrac derivative used.
Composition 300 achieves approximately 80% reduction in tumor. Further, the viability of residual tumor was reduced by 80%.

[3] = tested on: SKNF1 neuroblastoma tumors; assay: Cy5 fluorescence imaging of subcutaneously implanted SKNF1 tumor in athymic female mice; assay type: in vivo; conditions: Cy5 labeled; 1-24 hours post-administration; compared with triazole tetrac derivative alone or benzyl guanidine derivative alone
Experimental: Athymic female mice were implanted twice each with 10^6 cells/implant. The SKNF1 cell line was used with subcutaneous xenografts.
Group 1 consisted of three mice and were treated with PEG-TAT-dye (Cy5). Group 2 consisted of three mice and were treated with PEG-BG-dye (Cy5). Group 3 consisted of three mice and were treated with TAT-PEG-BG-dye (Cy5) wherein the TAT and BG were covalently linked with a PEG linker as compound 300. The treatment groups are shown below:
Fluorescence imaging (Cy5) was conducted 1 hour, 2 hours, 4 hours, 6 hours, and 24 hours post-administration. Imaging results are shown in FIGS. 13a and 13b, in which the tumor location is circled in yellow and the Cy5 dye appears as red.

[4] = target: purified integrin αvβ3 receptor (Homo sapiens, UniProt P05106+P06756); assay: Binding affinity towards purified integrin αvβ3 receptor
SKNF2 cell lines [5] = assay: Comparative examples: BG, BG derivatives, TAT derivative and co-administration versus Composition 300 in mice implanted with SKNF2 cell lines; assay type: in vivo; conditions: 3 mg/kg subcutaneously daily for 15 days (FIGS. 12a, 12b)
[6] = tested on: neuroblastoma SKNF1 cells; assay: Compositions 7a, 7b and 15 on subcutaneously implanted SKNF1 neuroblastoma tumor in female nude mice; assay type: in vivo
Experimental: The efficacy of Compositions 7a (dI-BG-P-TAT), 7b (dM-BG-P-TAT), and 15 (BG-P-PAT) were tested using neuroblastoma SKNF1 cells implanted into nude female mice similar to the examples discussed above for Composition 300 (BG-P-TAT).
Further, to compare the histopathological changes in tumors of untreated and treated groups, tumors were harvested, fixed, and stained with hematoxylin and eosin (H&E). Necrosis at low magnification of tumors from animals treated with compounds 7a, 7b, and 15 versus control is seen clearly as shown in Figure. […] On the other hand, tumors from the untreated group had mostly viable tumor cells. […]

Chain of purified integrin αvβ3 receptor (P06756 31-889 limits assumed): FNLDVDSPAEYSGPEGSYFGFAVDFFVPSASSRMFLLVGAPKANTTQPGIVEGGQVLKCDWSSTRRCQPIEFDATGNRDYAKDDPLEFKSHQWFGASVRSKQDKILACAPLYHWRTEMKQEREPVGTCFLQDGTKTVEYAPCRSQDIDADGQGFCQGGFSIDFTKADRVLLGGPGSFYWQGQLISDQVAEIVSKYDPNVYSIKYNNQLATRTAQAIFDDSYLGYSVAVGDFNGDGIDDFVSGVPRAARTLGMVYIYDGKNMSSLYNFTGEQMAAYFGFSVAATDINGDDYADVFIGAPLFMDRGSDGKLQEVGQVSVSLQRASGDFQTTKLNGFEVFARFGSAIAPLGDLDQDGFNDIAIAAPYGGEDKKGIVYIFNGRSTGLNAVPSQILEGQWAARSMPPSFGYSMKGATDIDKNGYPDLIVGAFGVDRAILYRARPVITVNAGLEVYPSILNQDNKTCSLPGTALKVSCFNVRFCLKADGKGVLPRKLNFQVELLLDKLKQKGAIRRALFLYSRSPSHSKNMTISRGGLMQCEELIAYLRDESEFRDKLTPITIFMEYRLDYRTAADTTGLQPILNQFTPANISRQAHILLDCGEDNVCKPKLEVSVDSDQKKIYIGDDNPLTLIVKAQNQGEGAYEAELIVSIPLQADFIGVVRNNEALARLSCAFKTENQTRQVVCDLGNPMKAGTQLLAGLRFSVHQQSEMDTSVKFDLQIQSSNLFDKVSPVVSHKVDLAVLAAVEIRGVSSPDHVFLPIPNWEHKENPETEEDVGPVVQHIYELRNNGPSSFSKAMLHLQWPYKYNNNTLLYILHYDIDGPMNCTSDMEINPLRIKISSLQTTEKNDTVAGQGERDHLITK
Chain of purified integrin αvβ3 receptor (P06756 891-1048 partner limits assumed): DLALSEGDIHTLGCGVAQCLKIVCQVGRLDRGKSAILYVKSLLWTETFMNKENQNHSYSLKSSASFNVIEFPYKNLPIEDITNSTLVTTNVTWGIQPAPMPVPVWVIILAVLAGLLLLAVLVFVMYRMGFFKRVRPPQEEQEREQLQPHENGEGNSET
Chain of purified integrin αvβ3 receptor (P05106 27-788): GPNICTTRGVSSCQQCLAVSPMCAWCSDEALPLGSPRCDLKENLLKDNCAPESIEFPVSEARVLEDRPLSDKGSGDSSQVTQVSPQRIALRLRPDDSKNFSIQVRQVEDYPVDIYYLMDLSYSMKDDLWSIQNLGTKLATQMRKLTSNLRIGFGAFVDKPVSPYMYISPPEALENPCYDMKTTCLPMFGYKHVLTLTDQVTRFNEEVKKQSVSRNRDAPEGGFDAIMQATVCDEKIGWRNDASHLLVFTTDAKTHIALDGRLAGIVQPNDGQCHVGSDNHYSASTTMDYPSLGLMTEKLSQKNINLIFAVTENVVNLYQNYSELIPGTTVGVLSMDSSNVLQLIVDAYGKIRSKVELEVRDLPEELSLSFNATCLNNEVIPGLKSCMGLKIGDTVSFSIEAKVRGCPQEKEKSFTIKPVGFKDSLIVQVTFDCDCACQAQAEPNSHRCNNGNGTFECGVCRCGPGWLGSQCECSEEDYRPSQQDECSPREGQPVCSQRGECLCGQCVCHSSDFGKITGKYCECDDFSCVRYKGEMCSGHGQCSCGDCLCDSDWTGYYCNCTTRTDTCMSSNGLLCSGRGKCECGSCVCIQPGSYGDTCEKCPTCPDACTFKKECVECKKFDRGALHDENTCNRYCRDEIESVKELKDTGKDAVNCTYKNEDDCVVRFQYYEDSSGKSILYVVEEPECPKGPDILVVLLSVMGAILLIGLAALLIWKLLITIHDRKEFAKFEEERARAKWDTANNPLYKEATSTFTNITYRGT

## N=C(N)NCc1ccc(OCCOCCOCCOCCOCCOCCOCCn2cc(COc3c(I)cc(Oc4c(I)cc(CC(=O)O)cc4I)cc3I)nn2)cc1 [Composition 300, 2-(4-(4-((1-(20-(4-(guanidinomethyl)phenoxy)-3,6,9,12,15,18-hexaoxaicosyl)-1H-1,2,3-triazol-4-yl)methoxy)-3,5-diiodophenoxy)-3,5-diiodophenyl)acetic acid]
[1]; 1 mg/kg daily
  tumor shrinkage (tumor weight): 60%
  tumor cell viability: 50%
[1]; 1 mg/kg
  tumor cell necrosis rate: approximately 50%
[1]; 3 mg/kg daily
  tumor shrinkage (tumor weight): 80%
  tumor cell viability: 20
[1]; 3 mg/kg
  tumor cell necrosis rate: approximately 80%
[1]; 10 mg/kg daily
  tumor shrinkage (tumor weight): 100%
  tumor cell viability: 0.00%
[1]; 10 mg/kg group, start approximately 825 mm^3, control rose to 1050 mm^3
  tumor volume after 15 days of treatment: ~100 mm^3
[1]; 10 mg/kg
  tumor cell necrosis rate: ~100%
[1]; 1, 3 and 10 mg/kg subcutaneously daily for 15 days, versus control animals
  effect on animal body weight: no effect; also recorded: no significant changes
[1]; at the 3 and 10 mg/kg doses (FIG. 11 legend)
  cancer cell necrosis: 80-100%
[1]; treated mice, 1-10 mg/kg
  abnormal animal head movements (circling) seen in control mice: disappearance
[1]; treatment groups 1-10 mg/kg versus control
  tumor vasculature: clearly diminished
SKNF2 cell lines [2]; 3 mg/kg
  reduction of viability of residual tumor: 80%
SKNF2 cell lines [2]; 3 mg/kg subcutaneously daily for 15 days (FIGS. 12a, 12b), listed as BG-P-TAT
  tumor weight shrinkage / reduction versus control (PBS): 80%
SKNF2 cell lines [2]
  Percentage of Tumor Growth Suppression: 80-90%
  Reduction of tumor viability: 80-90%
[3]
  retention time within the tumor (Cy5 fluorescence): marked improvement
  uptake into the SKNF1 neuroblastoma tumors (Cy5 fluorescence): marked improvement; also recorded: highest intensity accumulation
[4]
  IC50: 10.3 nM

## N=C(N)NCc1ccccc1 [BG, benzyl guanidine]
SKNF2 cell lines [2]
  Percentage of Tumor Growth Suppression: 40-50%
  Reduction of tumor viability: 40-50%

## beta cyclodextrin triazole tetrac [TAT]
SKNF2 cell lines [2]
  Percentage of Tumor Growth Suppression: 40-50%
  Reduction of tumor viability: 40-50%
SKNF2 cell lines [5]
  tumor weight shrinkage / reduction versus control (PBS): 40-50%

## N=C(N)NCc1cccc([131I])c1 [MIBG, meta-iodobenzylguanidine]
SKNF2 cell lines [2]
  Percentage of Tumor Growth Suppression: 40-50%
  Reduction of tumor viability: 40-50%

## N=C(N)NCc1ccc(OCCOCCOCCOCCOCCOCCOCCOCCN2CCN(CCCOc3c(I)cc(Oc4c(I)cc(CC(=O)O)cc4I)cc3I)CC2)cc1 [Composition 15]
[4]
  IC50: 0.3 nM
[4]; αvβ3 binding
  fold increase in binding affinity relative to BG-P-TAT: ~30 fold
[6]; 3 mg/kg subcutaneously, 20 days, control rose from 175 mm^3 to 1000 mm^3
  tumor volume over twenty days: no substantial increase
[6]; 3 mg/kg, 20 days of treatment
  areas of necrosis, fibrosis and cell debris (H&E staining): approximately 98%
  decrease in tumor weight versus control: 90%
